Data as given in paper PMC8528049, “Expanding the scope of native chemical ligation – templated small molecule drug synthesis via benzanilide formation” (Chemical Science, 2021).
Read-outs that look alike come from different tables or passages of the source.

Tests used:
Bcr–Abl = conditions: cited from earlier work
[1] = biological target: non-phosphorylated Abl1 kinase (Homo sapiens, UniProt P00519); test: KdELECT assay (DiscoverX), dissociation constants with Abl1 kinase
K562 cells = test: alamarBlue cell viability assay on K562 cells; type: cell-based; conditions: Homo sapiens
Procedure: Cell culture and cell viability assay
K562 cells were cultured in DMEM supplemented with 10% FCS, 4 mM glutamine, 100 U · mL-1 […]
assays , c e l ls were seeded on a 96-well plate (10000 cells/well), followed by the immediate addition of the test compounds (100 µL, serial dilutions in medium). Untreated cells were used as controls and complete medium without cells was used to determine the background signal o f the assay . Afte r […]
1:10, v:v, in PBS) was added to each well. […]
reader from PerkinElmer (Waltham, USA). IC 50 values were calculated from triplicates w it h a 1 3 -po i n t dose-response curve using the Hill equation. […]

[2] = Dissociation constant (Kd) of complexes formed with Abl1 kinase, non-phosphorylated Abl1 kinase, calculated from quadruplicates, mean ± SD
[3] = Kd, Replicate 1, non-phosphorylated Abl1 kinase, single replicate 1, Hill equation
[4] = Kd, Replicate 2, non-phosphorylated Abl1 kinase, single replicate 2, Hill equation
[5] = Kd, Replicate 3, non-phosphorylated Abl1 kinase, single replicate 3, Hill equation
[6] = Kd, Replicate 4, non-phosphorylated Abl1 kinase, single replicate 4, Hill equation
[7] = 96 h, single replicate 1, read-out: IC50, Replicate 1
[8] = 96 h, single replicate 2, read-out: IC50, Replicate 2
[9] = 96 h, single replicate 3, read-out: IC50, Replicate 3
[10] = 96 h treatment, calculated from triplicates, read-out: IC50 on K562 cells, determined by alamarBlue assay

Chain of non-phosphorylated Abl1 kinase (P00519 whole entry): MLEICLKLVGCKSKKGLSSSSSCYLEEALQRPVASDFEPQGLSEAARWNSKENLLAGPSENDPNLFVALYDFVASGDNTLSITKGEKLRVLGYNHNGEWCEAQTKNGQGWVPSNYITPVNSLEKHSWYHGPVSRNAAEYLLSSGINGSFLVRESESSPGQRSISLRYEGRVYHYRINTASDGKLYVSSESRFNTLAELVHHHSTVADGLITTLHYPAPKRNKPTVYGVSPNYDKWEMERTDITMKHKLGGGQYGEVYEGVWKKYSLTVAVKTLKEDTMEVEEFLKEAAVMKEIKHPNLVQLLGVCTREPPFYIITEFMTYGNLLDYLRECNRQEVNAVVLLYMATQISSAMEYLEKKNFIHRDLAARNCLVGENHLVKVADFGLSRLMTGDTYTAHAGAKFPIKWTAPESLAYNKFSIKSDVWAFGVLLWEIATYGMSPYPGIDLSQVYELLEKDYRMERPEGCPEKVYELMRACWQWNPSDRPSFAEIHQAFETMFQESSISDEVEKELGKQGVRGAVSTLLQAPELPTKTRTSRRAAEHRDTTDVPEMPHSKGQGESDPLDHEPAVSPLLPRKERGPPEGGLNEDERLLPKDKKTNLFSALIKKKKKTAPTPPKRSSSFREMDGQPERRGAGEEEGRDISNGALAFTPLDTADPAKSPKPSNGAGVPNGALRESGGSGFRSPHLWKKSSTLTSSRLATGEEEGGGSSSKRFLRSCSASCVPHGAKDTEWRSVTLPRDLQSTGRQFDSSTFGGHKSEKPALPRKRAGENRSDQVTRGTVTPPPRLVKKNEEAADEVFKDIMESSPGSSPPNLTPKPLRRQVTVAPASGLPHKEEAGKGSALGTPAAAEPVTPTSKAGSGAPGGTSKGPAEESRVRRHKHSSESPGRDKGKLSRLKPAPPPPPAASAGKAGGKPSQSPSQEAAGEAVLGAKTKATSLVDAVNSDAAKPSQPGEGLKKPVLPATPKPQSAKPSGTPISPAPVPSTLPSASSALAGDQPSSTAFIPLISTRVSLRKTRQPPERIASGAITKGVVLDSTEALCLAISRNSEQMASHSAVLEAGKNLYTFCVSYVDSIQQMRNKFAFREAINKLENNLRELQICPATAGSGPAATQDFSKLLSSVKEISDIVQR

SMILES | IC50 for inhibition of kinases such as Bcr–Abl (Bcr–Abl) | Kd [1, 2] [nM] | Kd [1, 3] [nM] | Kd [1, 4] [nM] | Kd [1, 5] [nM] | Kd [1, 6] [nM] | IC50 (K562 cells; [7]) [nM] | IC50 (K562 cells; [8]) [nM] | IC50 (K562 cells; [9]) [nM] | IC50 (K562 cells; [10]) [nM]
Cc1ccc(C(=O)Nc2ccc(CN3CCN(C)CC3)c(C(F)(F)F)c2)cc1C#Cc1cnc2[nH]ncc2c1 [GZD824 (3), GZD824, reference compound] | low nanomolar range | 0.6 ± 0.3 | 1 | 0.7 | 0.3 | 0.4 |  |  |  | 
Cc1ccc(C(=O)Nc2cc(C(F)(F)F)c(CN3CCN(C)CC3)cc2S)cc1C#Cc1cnc2[nH]ncc2c1 [GZD824-SH (3a)] |  | 0.9 ± 0.4 | 1.2 | 1.4 | 0.5 | 0.5 |  |  |  | 
Cc1cn(-c2cc(NC(=O)c3ccc(C)c(Nc4nccc(-c5cccnc5)n4)c3)cc(C(F)(F)F)c2)cn1 [Nilotinib (1), Nilotinib] | low nanomolar range |  |  |  |  |  |  |  |  | 
Cc1cn(-c2cc(C(F)(F)F)cc(NC(=O)c3ccc(C)c(Nc4nccc(-c5cccnc5)n4)c3)c2S)cn1 [Nilotinib-SH (1a)] |  | 881 ± 151 | 1140 | 793 | 791 | 797 |  |  |  | 
Cc1ccc(C(=O)Nc2ccc(CN3CCN(C)CC3)c(C(F)(F)F)c2)cc1C#Cc1cnc2cccnn12 [Ponatinib (2), Ponatinib, reference compound] |  |  |  |  |  |  | 3.5 | 3.6 | 3.1 | 3.4 ± 0.2
Cc1ccc(-c2nc3cc(C(F)(F)F)c(CN4CCN(C)CC4)cc3s2)cc1C#Cc1cnc2cccnn12 [Ponatinib-BT (2b)] |  | 8.4 ± 2.3 | 11.6 | 9.5 | 6.4 | 6.2 | 118 | 115 | 126 | 120 ± 5
Cc1ccc(C(=O)Nc2cc(C(F)(F)F)c(CN3CCN(C)CC3)cc2S)cc1C#Cc1cnc2cccnn12 [Ponatinib-SH (2a)] |  | 0.6 | 0.5 | 0.7 | 0.6 | 0.6 | 392 | 343 | 326 | 354 ± 28
